Legend:
HBV [1] = experiment: Effect of LIPG inhibitor on HBV in Huh7 cell line carrying HBV expression construct (Example 10); type: cell-based, hepatitis B virus; conditions: Huh7 cells, inhibitor 1 μM to 100 μM added five days after construct introduction, one week; depending on the concentration
Method: An HBV expression construct (HBV-C: provided by Dr. Yasuhito Tanaka at Nagoya City University) was introduced into Huh7 cell line. Five days after the introduction, an LIPG inhibitor (GSK264220A) was added at 1 μM to 100 μM and the cells were cultured.

HBV [2] = experiment: shRNA function against HBV infection of fresh human hepatocytes (PHH cells), short-term culture (Example 3); conditions: for amount of cccDNA: shRNA alone, lentivirus day 0, HBV day 1, collected day 7; for amount of cccDNA, combined use of ETV: shRNA plus entecavir (ETV) 10 nM from day 2, collected day 7 (short-term culture)
Method: Using fresh human hepatocytes (PHH cells) derived from PXB mouse (PhoenixBio Co., Ltd., Hiroshima, Japan), effects of shRNAs against each gene on infection of human hepatocytes with HBV were determined. Experiments were carried out by culturing PHH cells as follows. First, on day 0 of culture, the cells were infected with the lentivirus expressing the shRNA against each of the genes by a conventional method. A serum collected from an HBV-infected chimeric mouse infected with HBV (Genotype C. 5 HBV DNA copies/cell) was added to the cells as an HBV inoculum on day 1 of culture. On day 2 of culture, the cells were washed three times and entecavir (ETV) (10 nM) was added thereto. On day 7 of culture, the cells were collected and the amount of HBV DNA, the amount of HBV cccDNA, and the mRNA level of each gene were determined. The amounts of HBV DNA, HBV cccDNA, and pg RNA were quantified in the same manner as in Example 1.

HBV [3] = experiment: shRNA introduced after established HBV infection of PHHs (Example 6); type: cell-based, hepatitis B virus; conditions: shRNA introduced one week after HBV infection, cultured 3 weeks
Method: The effects of an shRNA on the proliferation of HBV when PHHs were infected with HBV and then treated with an shRNA were investigated. One week after PHHs were infected with HBV, the shRNA (SEQ ID NO: 2) against Dock11 gene was introduced and the cells were cultured for 3 weeks with culture medium changes.

DOCK11 gene = DOCK11 gene expression (mRNA) in Huh 7.5 cells (Example 8); conditions: Huh7.5 cells, vs cont shRNA
Method: The mRNA of DOCK11 gene was quantified by real time PCR according to a conventional method.
The antiviral activity of the shRNA against Dock11 gene was evaluated using a replicon system for JFH1 strain. HCV replication analysis was performed by transfecting Huh 7.5 cells with synthetic JFH1-RNA. Cells in which DOCK11 was constitutively knocked down were prepared by introducing DOCK11 shRNA #2 into Huh 7.5 cells. Cells into which cont shRNA was introduced were used as a control. Huh 7.5 cells into which each shRNA had been introduced were transfected with 1 μg synthetic RNA (JFH1-RNA) using TransIT®-mRNA Transfection Kit (Mirus). Total RNAs were isolated 24, 48 and 72 hours after the transfection using High Pure RNA Isolation Kit (Roche), and cDNAs were synthesized using high-capacity cDNA reverse transcription kit (Applied Biosystems, Carlsbad, Calif.). […] The expression of DOCK11 gene was evaluated by determining the level of mRNA in the same manner as in Example 2.

HCV = HCV replication analysis, JFH1-RNA transfected Huh 7.5 cells (Example 8); conditions: Huh7.5 cells, 24, 48 and 72 hours after introduction of HCV RNA (JFH1-RNA)
Method: The antiviral activity of the shRNA against Dock11 gene was evaluated using a replicon system for JFH1 strain. HCV replication analysis was performed by transfecting Huh 7.5 cells with synthetic JFH1-RNA. Cells in which DOCK11 was constitutively knocked down were prepared by introducing DOCK11 shRNA #2 into Huh 7.5 cells. Cells into which cont shRNA was introduced were used as a control. Huh 7.5 cells into which each shRNA had been introduced were transfected with 1 μg synthetic RNA (JFH1-RNA) using TransIT®-mRNA Transfection Kit (Mirus). Total RNAs were isolated 24, 48 and 72 hours after the transfection using High Pure RNA Isolation Kit (Roche), and cDNAs were synthesized using high-capacity cDNA reverse transcription kit (Applied Biosystems, Carlsbad, Calif.).

Molecule | amount of cccDNA (HBV [2]) | amount of cccDNA, combined use of ETV (HBV [2]) | further results
Cc1oc(S(=O)(=O)N2CCCCC2)cc1NC(=O)Nc1ccccc1 [GSK264220A] |  |  | amount of HBV DNA (HBV [1]): decreased; amount of HBV cccDNA (HBV [1]): decreased
DENND2A #2: lentivirus-expressed shRNA against DENND2A gene, SEQ ID NO: 7, used in Examples 3 and 4 (guide CCGGCCAATGAAGGAGAACCCTTATCTCGAGATAAGGGTTCTCCTTCATTGGTTTTTTG) | dramatically decreased | below the detection sensitivity | amount of cccDNA, combined use of ETV (HBV [2]; listed as shRNA for DENND2A gene): below the detection limit
DOCK11 #2: lentivirus-expressed shRNA against DOCK11 gene, SEQ ID NO: 2, used in Examples 3, 4, 6, 8, 12 (guide CCGGGTACTAGACACCATATCATTTCTCGAGAAATGATATGGTGTCTAGTACTTTTTG) | dramatically decreased | below the detection sensitivity | cccDNA of HBV (HBV [3]): disappear; pgRNA of HBV (HBV [3]): disappear; expression level of DOCK11 gene (DOCK11 gene): decreased; HCV RNA replication (HCV): effectively suppressed; amount of cccDNA, combined use of ETV (HBV [2]; listed as shRNA for Dock11 gene): below the detection limit
HECW2 #3: lentivirus-expressed shRNA against HECW2 gene, SEQ ID NO: 17, used in Examples 3 and 4 (guide CCGGGCACAATACTTGGAGTCAATTCTCGAGAATTGACTCCAAGTATTGTGCTTTTT) | decreased | synergistic effect to decrease cccDNA | 
LIPG #5: lentivirus-expressed shRNA against LIPG gene, SEQ ID NO: 14, used in Examples 3 and 4 (guide CCGGTTACACGGATGCGGTCAATAACTCGAGTTATTGACCGCATCCGTGTAATTTTTG) | decreased | synergistic effect to decrease cccDNA | 
